For four compounds, EC50 and IC50 results are on record in PMC6627746, “Pharmacological Properties of the Type 1 Tyramine Receptor in the Diamondback Moth, Plutella xylostella” (International Journal of Molecular Sciences, 2019).

Experiment [1] has as its target T1, PxTAR1 (Plutella xylostella, UniProt A0A4D6I7S9).
T1 construct: gene tar1; full-length ORF, 467 residues, 52266 Da; lentiviral vector pEB-TAR1-3flag-copGFP(T2A)PURO (3flag tag, GFP co-expressed via T2A)
T1 sequence (A0A4D6I7S9 1-467): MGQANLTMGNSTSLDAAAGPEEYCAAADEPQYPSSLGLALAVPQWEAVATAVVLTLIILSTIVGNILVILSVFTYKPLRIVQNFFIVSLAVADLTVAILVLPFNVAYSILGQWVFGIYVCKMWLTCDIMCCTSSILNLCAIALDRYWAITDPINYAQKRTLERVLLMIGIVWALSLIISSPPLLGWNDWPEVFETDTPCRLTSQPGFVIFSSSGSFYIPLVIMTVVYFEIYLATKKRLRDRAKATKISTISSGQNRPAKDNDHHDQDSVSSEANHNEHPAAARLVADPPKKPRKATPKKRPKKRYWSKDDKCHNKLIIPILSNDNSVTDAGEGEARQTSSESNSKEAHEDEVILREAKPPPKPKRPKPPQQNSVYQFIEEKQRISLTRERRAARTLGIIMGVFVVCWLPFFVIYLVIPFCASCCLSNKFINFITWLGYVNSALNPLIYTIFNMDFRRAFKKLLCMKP
Kind of experiment: intracellular Ca2+ assay, Cal-590 AM, confocal imaging, stable HEK-293 line. Format: cell-based.

For experiment [2], the target named is T1, PxTAR1. In words: cAMP ELISA (Parameter Assay Kit), TAR1/[…] cells. Format: cell-based.

Each structure is given as a SMILES string.

Regarding `CNC=Nc1ccc(C)cc1C` [DPMF, N2-(2,4-Dimethylphenyl)-N1-methyformamidine], on PxTAR1 [1], the EC50 was found to be 84.5 nM. On the same count and under the same terms, the same measure for `C=C(C)[C@@H]1CC=C(C)C(=O)C1` [L(-)-carvone]: 1.15 nM. With `NC[C@H](O)c1ccc(O)cc1` [octopamine], at PxTAR1 [2], the IC50 worked out at 13700 nM. In the case of `NCCc1ccc(O)cc1` [tyramine], the IC50 against PxTAR1 [2] turned out to be 446 nM. Also, a half-maximal effect at PxTAR1 [1] (EC50) was put at 13.1 nM.
